According to article PMC11012124, “Synthesis of Novel Triazine-Based Chalcones and 8,9-dihydro-7H-pyrimido[4,5-b][1,4]diazepines as Potential Leads in the Search of Anticancer, Antibacterial and Antifungal Agents” (International Journal of Molecular Sciences, 2024):

Key:
SN12C = assay: cells; conditions: Homo sapiens, 48 h; for CC50: read-out: LC50
BT-549 = assay: cells; conditions: Homo sapiens, BT-549, 48 h; for CC50: read-out: LC50
60 cancer cell lines = assay: NCI-60 one-dose screen (10 μM); type: cell-based; conditions: Homo sapiens; one dose of 10 μM, mean over 60 cancer cell lines; read-out: Mean Growth Percent (MGP)
Source text: Additionally, the mean of the growth percentages (MGP) of each compound against all the 60 cancer cell lines is also reported, which is used as one of the selection criteria to continue with tests at five concentration doses.

CCRF-CEM = assay: cells; conditions: Homo sapiens, 48 h; for CC50: read-out: LC50
MDA-MB-231/ATCC = assay: cells; conditions: Homo sapiens, MDA-MB-231, 48 h; for CC50: read-out: LC50
OVCAR-5 = assay: cells; conditions: Homo sapiens, OVCAR-5, 48 h; for CC50: read-out: LC50
HCT-116 = assay: cells; conditions: Homo sapiens, HCT-116, 48 h; for CC50: read-out: LC50
HOP-92 = assay: cells; conditions: Homo sapiens, HOP-92, 48 h; for CC50: read-out: LC50
SF-539 = assay: cells; conditions: Homo sapiens, SF-539, 48 h; for CC50: read-out: LC50, SF-539, 48 h
HS 578T = assay: cells; conditions: Homo sapiens, 48 h; for CC50: read-out: LC50
HCC-2998 = assay: cells; conditions: Homo sapiens, HCC 2998, 48 h; for CC50: read-out: LC50
[1] = Hemolytic activity, spectrophotometric; type: cell-based, human; conditions: human, human red blood cells (huRBC), 5% hematocrit, 200 μg/mL, 37 °C
NCI-H460 = assay: cells; conditions: Homo sapiens, NCI-H460, 48 h; for CC50: read-out: LC50
K-562 = assay: cells; conditions: Homo sapiens, K562, 48 h; for GI50: K-562, 48 h; for CC50: read-out: LC50
ACHN = assay: cells; conditions: Homo sapiens, 48 h; for CC50: read-out: LC50
RPMI-8226 = assay: cells; conditions: Homo sapiens, RPMI-8226, 48 h; for CC50: read-out: LC50
HL-60(TB) = assay: cells; conditions: Homo sapiens, HL-60, 48 h; for CC50: read-out: LC50
A549/ATCC = assay: cells; conditions: Homo sapiens, A549, 48 h; for CC50: read-out: LC50
MCF7 = assay: cells; conditions: Homo sapiens, MCF7, 48 h; for CC50: read-out: LC50
PC-3 = assay: cells; conditions: Homo sapiens, PC-3, 48 h; for CC50: read-out: LC50
LOX IMVI = assay: cells; conditions: Homo sapiens, 48 h; for CC50: read-out: LC50, LOX IMVI, 48 h
MOLT-4 = assay: cells; conditions: Homo sapiens, MOLT-4, 48 h; for CC50: read-out: LC50
SK-OV-3 = assay: cells; conditions: Homo sapiens, SK-OV-3, 48 h; for CC50: read-out: LC50
NCI-H226 = assay: cells; conditions: Homo sapiens, NCI-H226, 48 h; for CC50: read-out: LC50
SNB-75 = assay: cells; conditions: Homo sapiens, SNB-75, 48 h; for CC50: read-out: LC50
SK-MEL-28 = assay: cells; conditions: Homo sapiens, SK-MEL-28, 48 h; for CC50: read-out: LC50
A498 = assay: cells; conditions: Homo sapiens, A498, 48 h; for CC50: read-out: LC50
SW-620 = assay: cells; conditions: Homo sapiens, SW-620, 48 h; for CC50: read-out: LC50
MDA-MB-435 = assay: cells; conditions: Homo sapiens, MDA-MB-435, 48 h; for CC50: read-out: LC50
UACC-257 = assay: cells; conditions: Homo sapiens, UACC-257, 48 h; for CC50: read-out: LC50
IGROV1 = assay: cells; conditions: Homo sapiens, IGROV-1, 48 h; for CC50: read-out: LC50
OVCAR-8 = assay: cells; conditions: Homo sapiens, OVCAR-8, 48 h; for CC50: read-out: LC50
RXF 393 = assay: cells; conditions: Homo sapiens, RXF 393, 48 h; for CC50: read-out: LC50
TK-10 = assay: cells; conditions: Homo sapiens, TK-10, 48 h; for CC50: read-out: LC50
M14 = assay: cells; conditions: Homo sapiens, M14, 48 h; for CC50: read-out: LC50
MALME-3M = assay: cells; conditions: Homo sapiens, 48 h; for CC50: read-out: LC50
NCI-H23 = assay: cells; conditions: Homo sapiens, NCI-H23, 48 h; for CC50: read-out: LC50
EKVX = assay: cells; conditions: Homo sapiens, 48 h; for CC50: read-out: LC50

## CN(C)c1nc(NCCNS(=O)(=O)c2ccc(C(=O)/C=C/c3ccc(C(F)(F)F)cc3)cc2)nc(Nc2ccc(F)cc2)n1 [24g]
SN12C
  GI50: 6.36 µM
  CC50: 19.9 µM
BT-549
  GI50: 12.7 µM
  CC50: 25.6 µM
60 cancer cell lines
  activity at 10 µM: -27.2%
CCRF-CEM
  GI50: 3.79 µM
  CC50: > 100 µM
MDA-MB-231/ATCC
  GI50: 8.38 µM
  CC50: 20.8 µM
OVCAR-5
  GI50: 12 µM
  CC50: 24.4 µM
HCT-116
  GI50: 1.68 µM
  CC50: 3.13 µM
HOP-92
  GI50: 6.15 µM
  CC50: 20.7 µM
SF-539
  GI50: 10.7 µM
  CC50: 22.5 µM
HS 578T
  GI50: 12.7 µM
  CC50: 49.5 µM
HCC-2998
  GI50: 1.77 µM
  CC50: 3.61 µM
[1]
  hemolysis at 24 h, 200 µg/mL: 0.8%
NCI-H460
  GI50: 4.09 µM
  CC50: 14.9 µM
K-562
  GI50: 2.98 µM
  CC50: 30.4 µM
ACHN
  GI50: 5.08 µM
  CC50: 17.4 µM
RPMI-8226
  GI50: 3 µM
  CC50: > 100 µM
HL-60(TB)
  GI50: 3.81 µM
  CC50: 30 µM
A549/ATCC
  GI50: 10 µM
  CC50: 25.4 µM
MCF7
  GI50: 1.7 µM
  CC50: 3.56 µM
PC-3
  GI50: 4.15 µM
  CC50: 18.2 µM
LOX IMVI
  GI50: 1.86 µM
  CC50: 3.84 µM
MOLT-4
  GI50: 2.9 µM
  CC50: 9.61 µM
SK-OV-3
  GI50: 13.7 µM
  CC50: 27.8 µM
NCI-H226
  GI50: 7.82 µM
  CC50: 24.7 µM
SNB-75
  GI50: 8.41 µM
  CC50: 22.7 µM
SK-MEL-28
  GI50: 10.4 µM
  CC50: 22.2 µM
A498
  GI50: 13 µM
  CC50: 26.2 µM
SW-620
  GI50: 2.24 µM
  CC50: 5.06 µM
MDA-MB-435
  GI50: 2.86 µM
  CC50: 8.49 µM
UACC-257
  GI50: 11 µM
  CC50: 25 µM
IGROV1
  GI50: 12.3 µM
  CC50: 24.9 µM
OVCAR-8
  GI50: 12.3 µM
  CC50: 30.6 µM
RXF 393
  GI50: 3.7 µM
  CC50: 16 µM
TK-10
  GI50: 17.4 µM
  CC50: 32 µM
M14
  GI50: 3.39 µM
  CC50: 12.9 µM
MALME-3M
  GI50: 14.2 µM
  CC50: 27.5 µM
NCI-H23
  GI50: 11.2 µM
  CC50: 24.2 µM
EKVX
  GI50: 4.2 µM
  CC50: 15.7 µM

## Cc1ccc(C2CC(c3ccc(S(=O)(=O)NCCNc4nc(Nc5ccc(F)cc5)nc(N(C)C)n4)cc3)=Nc3c(N)nc(N)nc3N2)cc1 (stereo not shown) [31b]
SN12C
  GI50: > 100 µM
  CC50: > 100 µM
BT-549
  GI50: 5.46 µM
  CC50: 59.4 µM
60 cancer cell lines
  activity at 10 µM: 48.4%
CCRF-CEM
  GI50: 2.81 µM
  CC50: > 100 µM
MDA-MB-231/ATCC
  GI50: 3.86 µM
  CC50: > 100 µM
OVCAR-5
  GI50: > 100 µM
  CC50: > 100 µM
HCT-116
  GI50: 3.81 µM
  CC50: > 100 µM
HOP-92
  GI50: 2.54 µM
  CC50: 21 µM
SF-539
  GI50: 3.29 µM
  CC50: 78.9 µM
HS 578T
  GI50: 19.4 µM
  CC50: > 100 µM
HCC-2998
  GI50: 2.93 µM
  CC50: 41.1 µM
[1]
  hemolysis at 24 h, 200 µg/mL: 1.7%
NCI-H460
  GI50: 4.76 µM
  CC50: > 100 µM
K-562
  GI50: 2.75 µM
ACHN
  GI50: > 100 µM
  CC50: > 100 µM
RPMI-8226
  GI50: 2.94 µM
  CC50: > 100 µM
HL-60(TB)
  GI50: 2.94 µM
  CC50: 20.2 µM
A549/ATCC
  GI50: > 100 µM
  CC50: > 100 µM
MCF7
  GI50: 3.08 µM
  CC50: > 100 µM
PC-3
  GI50: 3.33 µM
  CC50: > 100 µM
LOX IMVI
  GI50: 2.09 µM
  CC50: 5.11 µM
MOLT-4
  GI50: 2.2 µM
  CC50: 7.53 µM
SK-OV-3
  GI50: > 100 µM
  CC50: > 100 µM
NCI-H226
  GI50: > 100 µM
  CC50: > 100 µM
SNB-75
  GI50: > 100 µM
  CC50: > 100 µM
SK-MEL-28
  GI50: 26.9 µM
  CC50: > 100 µM
A498
  GI50: > 100 µM
  CC50: > 100 µM
SW-620
  GI50: 8.04 µM
  CC50: > 100 µM
MDA-MB-435
  GI50: 8.79 µM
  CC50: > 100 µM
UACC-257
  GI50: 26 µM
  CC50: > 100 µM
IGROV1
  GI50: 64.4 µM
  CC50: > 100 µM
OVCAR-8
  CC50: > 100 µM
RXF 393
  GI50: 2.27 µM
  CC50: 9.12 µM
TK-10
  GI50: > 100 µM
  CC50: > 100 µM
M14
  GI50: 4.56 µM
  CC50: > 100 µM
MALME-3M
  GI50: 4.65 µM
  CC50: 33.2 µM
NCI-H23
  GI50: 78.8 µM
  CC50: > 100 µM
EKVX
  GI50: 5.84 µM
  CC50: > 100 µM

## CN(C)c1nc(NCCNS(=O)(=O)c2ccc(C(=O)/C=C/c3ccc(Cl)cc3)cc2)nc(Nc2ccc(F)cc2)n1 [24e]
SN12C
  GI50: 3.79 µM
  CC50: 15.9 µM
BT-549
  GI50: 11.6 µM
  CC50: 23.9 µM
60 cancer cell lines
  activity at 10 µM: -46.6%
CCRF-CEM
  GI50: 3.75 µM
  CC50: > 100 µM
MDA-MB-231/ATCC
  GI50: 4.72 µM
  CC50: 17.4 µM
OVCAR-5
  GI50: 10.7 µM
  CC50: 22.6 µM
HCT-116
  GI50: 1.66 µM
  CC50: 3.11 µM
HOP-92
  GI50: 3.83 µM
  CC50: 14.7 µM
SF-539
  GI50: 10.1 µM
  CC50: 22 µM
HS 578T
  GI50: 11.4 µM
  CC50: 58.1 µM
HCC-2998
  GI50: 2.48 µM
  CC50: 6.9 µM
[1]
  hemolysis at 24 h, 200 µg/mL: 9.1%
NCI-H460
  GI50: 3.38 µM
  CC50: 13.8 µM
K-562
  GI50: 3.29 µM
  CC50: > 100 µM
ACHN
  GI50: 4.2 µM
  CC50: 15.3 µM
RPMI-8226
  GI50: 2.47 µM
  CC50: 7.11 µM
HL-60(TB)
  GI50: 4.39 µM
  CC50: > 100 µM
A549/ATCC
  GI50: 4.52 µM
  CC50: 17.4 µM
MCF7
  GI50: 2.28 µM
  CC50: 6.33 µM
PC-3
  GI50: 3.74 µM
  CC50: 14.1 µM
LOX IMVI
  GI50: 2.74 µM
  CC50: 9.16 µM
MOLT-4
  GI50: 3.07 µM
  CC50: > 100 µM
SK-OV-3
  GI50: 11.5 µM
  CC50: 27.7 µM
NCI-H226
  GI50: 6.14 µM
  CC50: 24.3 µM
SNB-75
  GI50: 5.6 µM
  CC50: 25.7 µM
SK-MEL-28
  GI50: 6.77 µM
  CC50: 20.1 µM
A498
  GI50: 10.5 µM
  CC50: 23.1 µM
SW-620
  GI50: 2.78 µM
  CC50: 11 µM
MDA-MB-435
  GI50: 3.8 µM
  CC50: 14 µM
UACC-257
  GI50: 8.36 µM
  CC50: 21.8 µM
IGROV1
  GI50: 8.58 µM
  CC50: 21.4 µM
OVCAR-8
  GI50: 10.2 µM
  CC50: 23.7 µM
RXF 393
  GI50: 3.09 µM
  CC50: 15.1 µM
TK-10
  GI50: 11.7 µM
  CC50: 30.3 µM
M14
  GI50: 4.14 µM
  CC50: 15.3 µM
MALME-3M
  GI50: 12.8 µM
  CC50: 26.4 µM
NCI-H23
  GI50: 10.7 µM
  CC50: 23.4 µM
EKVX
  GI50: 3.11 µM
  CC50: 14.7 µM
